In assay [1] the test system is senescent preneoplastic hepatocytes. Briefly: Model of liver cancer initiation (Nras G12V by hydrodynamic tail vein injection). Conditions: 25 mg/kg i.p. daily for 4 days from day 5 after HDTVI; FIGS. 16C-E. The assay is classed as in vivo, C57BL/6J mice. On the procedure: All mice were purchased from Charles River UK, Ltd. For Hydrodynamic tail vein injection (HDTVI) experiments female C57BL/6J mice aged 5-6 weeks were given 20 μg of Nras^G12V & gaussia luciferase (Gluc) expressing plasmid and 5 μg of SB13 transposase-expressing plasmid. Plasmids were prepared using GeneElute HP Endotoxin-free Plasmid Maxiprep kit (Sigma). Purified plasmids were diluted in sterile-filtered PBS to a total volume of 10% mouse body weight and injected into mouse lateral tail vein within a 10 s window. 4 days after HDTVI, mice were bled to assess presence of gaussia luciferase signal in the blood serum and used to randomize/equalize groupings for vehicle and drug treated groups. […]
Immunohistochemical staining—Slides were deparaffinised by washing slides twice in Histoclear™ for 5 min each, followed by 5 min washes in decreasing concentrations of ethanol with 100%, 75%, 50% & 25% ethanol washes before a final wash 5 min in dH2O. […] Signal development was stopped when visible positive cells could be detected on a microscope, by washing slides in dH2O. […]
Slide image acquisition & analysis—Slides were acquired using a 20× brightfield objective on a Zeiss Axio Scan Z.1 slide scanner and analysis performed using QuPath version 0.2.0-m9 using in built positive cell detection tool to segment Haematoxylin stained nuclei and quantify mean intensity of DAB. […]

Assay [2] relates to HCT116 colon cancer cells. Briefly: Senolytic survival assay, chemotherapy-induced senescence in cancer cells. The assay is classed as cell-based, human. Conditions: second experiment: doxorubicin 100 nM, etoposide 2 μM or cisplatin 100 μM, or DMSO; replenished after 72 h, 48 h more; FIGS. 7A-C. On the procedure: IMR90 cells were used to generate inducible ER:RAS (hereinafter iRAS) cells to model Oncogene induced senescence (OIS), through retroviral infection of pLNC-ER:RAS-neo into IMR90 cells followed by selection with Neomycin. IMR90 cells containing the pLNC-ER:RAS plasmid backbone pLXSN were infected in parallel to assess leakiness in the pLNC-ER:RAS system. Treatment with 100 nM 4OHT (Sigma, in DMSO) was used to induce IMR90 ER:RAS cells to undergo oncogene induced senescence (OIS). Therapy induced senescence (TIS) was induced in IMR90 cells by treatment with 33 μM (50 ug/ml) bleomycin sulphate (Generon, HY-17565) for 24 hours, 20 μM palbociclib (Selleckchem, S1116) for 7 days or 100 nM doxorubicin (Cayman chemical, 15007) for 7 days. Senescence was induced in SK-HEP-1 cells by treatment with 2 μM etoposide (Sigma-Aldrich, E1383) for 7 days (FIGS. 4A-C). HCT-116 senescence was induced by 250 nM treatment with doxorubicin (Cayman chemical, 15007) for 48 hours followed by 5 days culture in media without chemotherapy (FIG. 5), or by treatment with 100 nM doxorubicin, 2 μM etoposide or 100 μM cisplatin for 3 days followed by 4 days culture in media without chemotherapy (FIGS. 6A-7C). Senescence was induced in MCF7 by 200 nM treatment with doxorubicin for 7 days, 2 μM etoposide for 7 days or 10 μM cisplatin for 7 days (FIGS. 8A-9C).
High-throughput microscopy survival assay—To assess senolytic effect of drugs, cells were cultured for 7 days, culture media was changed to DM0.5 media and drugs in DMSO were added (<5% v/v final concentration), drugs were replenished after 3 days if assay length was longer than 72 h. Wells were fixed in 4% PFA for 1 hour at day 10 to 14, washed 3 times with PBS and then stained with 1 μg/mL DAPI (w/v, PBS) for 10 minutes. Wells were then washed 3 times with PBS. Optionally plates could be stored at 4° C. for up to 2 weeks and DAPI stained. Image acquisition of DAPI stained cells was performed on an automated InCell Analyser 2000 (GE Healthcare®) and high-content analysis on the InCell Investigator 2.7.3 software used to quantify number of DAPI positive cells per well. […] Survival was measured as cell counts relative to DMSO treated quiescent or senescent cells.
In a first experiment, HCT116 colon cancer cells were treated with doxorubicin (to induce senescence), or DMSO (as a control). […] 7 days after adding the drugs with replenishment after 3 days, cells were fixed, imaged and cells numbers were quantified using high throughput microscopy. […]
In a second experiment, HCT116 were treated with doxorubicin, etoposide or cisplatin (to induce senescence) or DMSO (as a control). 7 days after treatment, BrdU incorporation (to assess cell division), SA-β-Galactosidase activity and p21^CIP1 expression (as markers of senescence) were analysed. […]

Assay [3] can be described thus: Blood markers (Vetscan) in a separate cohort of old mice. Particulars: ~19 mo females, before 4th round, Compound 2 10 mg/kg, Compound 3 25 mg/kg, versus vehicle. The assay is classed as in vivo, female C57/BL6 mice. On the procedure:
Blood was collected prior to each round of injection for physiological assessments. Mice were allowed to rest 4 weeks prior to being culled and organs collected for freezing in OCT, paraffin embedding and snap-freezing for RNA extraction.
For analysis of immune cell composition in whole blood, tail-vein blood was collected 2 days after last treatment. Whole blood was diluted in saline to a volume of […] and ran on a Sysmex XE2100 automated cell counter. Blood glucose levels were determined by collecting whole-blood from tail vein into heparinised tubes (Abraxis), 120-140 μL of whole-blood to be loaded onto a comprehensive diagnostic profile reagent rotor (Abraxis) and run on a VetScan VS2 Chemistry Analyzer (Abraxis: 500-7123).
Further experiments were performed on a separate cohort of old mice. […] This regimen was repeated 4 more times and blood was collected for Vetscan measurements prior to the 4th round of treatment (FIG. 19). At that stage, ~19 mo females presented elevated levels of ALT, amylase and glucose in blood when compared with young mice (FIG. 20A).

Regarding `Cc1c(CCOc2cc(Cl)ccc2-c2ccc3ncc(CCN)n3c2)c(C(=O)N(C)C)nn1C` [Compound 3, 4-(2-{2-[3-(2-aminoethyl)imidazo[1,2-a]pyridin-6-yl]-5-chlorophenoxy}ethyl)-N,N,1,5-tetramethyl-1H-pyrazole-3-carboxamide], the “Number of senescent preneoplastic hepatocytes” value in assay [1] is “reduces the number senescent preneoplastic hepatocytes”. Besides, in assay [2], the “Survival, senescent versus control cells” value is “preferentially kill cancer cells that undergo senescence after being treated with doxorubicin, etoposide or cisplatin”. Moreover, in assay [3] (FIG. 20A), the ALT in blood entry is listed as “lower level”. Also, in assay [3] (FIG. 20B), the Amylase in blood entry is listed as “lower level”. In assay [3] (FIG. 20C), the Glucose in blood result is reported as “lower level”.

For the origin of these results see US12691100B2, “NMT inhibitor treatment of a senescence-associated disease or disorder of the liver” (Imperial College Innovations Limited, priority 2020, dated 2026).
